We go through twelve compounds from patent EP0465913B1, “Diaminotrifluoromethylpyrimidine derivatives, process for their production and phospholipase A2 inhibitor containing them” (ISHIHARA SANGYO KAISHA, LTD., priority 1990, dated 1992).

“And” between values parts separate entries of the source, which are not always exact repeats. Equal entries are not always repeated. Structures can show the parent of a compound that is named as a salt. Where two headings read alike, the source gives them in different places.

The target in series [1] is T1, Porcine pancreatic phospholipase A2 (Sus scrofa, UniProt P00592).
T1 construct: purchased Boehringer Mannheim·Yamanouchi K.K. 161454·122416
T1 sequence (P00592 23-146): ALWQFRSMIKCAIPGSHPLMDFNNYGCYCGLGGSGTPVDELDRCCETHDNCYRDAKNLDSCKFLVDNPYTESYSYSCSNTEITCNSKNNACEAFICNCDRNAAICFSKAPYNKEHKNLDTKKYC
In words: Phospholipase A2 inhibitory activity, method A (egg yolk lecithin substrate). The class given is biochemical. To be noted: 1,000 ppm, 37°C for 30 minutes, read-out: % inhibition of PLA2 (1,000 ppm). An outline of the steps: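 Egg yolk lecithin dispersed with glycerine, Triton X-100 and CaCl2 in 50 mM Tris-HCl pH7.5 was hydrolysed by enzyme (20 ng/ml solution) with compound, 37°C, 30 min. Released free fatty acid measured by ACS-ACOD method at 540 nm; apparent enzyme level read from a standard curve to give percent inhibition.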

Series [2] in a line: Acute toxicity, intravenous injection (LD50). The series is classed as in vivo. To be noted: mouse, in vivo, iv, ddy male mice, sodium salt, mortality over one week. The method, then:
Administration route: Intravenous injection
Using ddy male mice (body weight: 25 - 30 g), each test group consisted of 5 mice. A test compound was dissolved in the form of a sodium salt in a physiological saline or in a 5% glucose aqueous solution, and intravenously injected in an amount of 0.1 ml/10 g body weight. After the injection, the mortality rate was obtained over one week, and the median lethal dose LD50 (mg/kg) was determined.

In series [3] the test system is experimental acute pancreatitis model. In words: Effects against acute pancreatitis (Test Example 8, closed duodenal loop method, lesion scores). The settings on record: sodium salt, 6 hours after ventrotomy; for inhibition in vivo at 10 mg/kg: Rattus norvegicus, 10 mg/kg single intravenous injection. The class given is in vivo, Crj-CD male rats. In a few lines: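 Closed duodenal loop pancreatitis in male Crj-CD rats (n=3) under halothane/nitrous oxide; sodium-salt compounds given i.v. into tail vein by continuous infusion or bolus, controls untreated. At 6 h, four pancreatic lesions scored 0-3; inhibition % of total and hemorrhagic scores calculated versus control.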

For series [4] the test system is unchanged. In words: Effects against acute pancreatitis (Test Example 7, closed duodenal loop method, gross pathological examination). The class given is in vivo, Crj-CD male rats. Set-up: key to Pancreatic edema Distribution: -: No significant lesions; ± ∼ +++: Focal-diffuse; ± ∼ +++: Focal-diffuse; ± ∼ +++: Focal-diffuse; ± ∼ +++: Focal-diffuse; key to Pancreatic hemorrhage Petechia Grade / Pancreatic edema Grade: -: No significant lesions; ±: Minimal; +: Light; ++: Moderate; +++: Marked. To be noted: 40 mg per kg continuous intravenous injection, examination 3 hours after ventrotomy, individual rats. The method, then:
Using Crj-CD male rats (for Compound No. 19, rats having a body weight of from 371 to 484 g were used, and for Compound No. 10, rats having a body weight of from 444 to 574 g were used), each test group consisted of 3 rats. An experimental acute pancreatitis model was prepared by a closed duodenal loop method under anesthesia with halothane (manufactured by Hoechst Japan) and nitrous oxide (manufactured by Sumitomo Seika K.K.) applied by means of a general inhalation anesthesia machine (Model EM-2 and halothane evaporator F-Model). Then, Compound No. 19 or Compound No. 10 was continuously intravenously injected into the tail vein in an amount of 50 mg per kg or 40 mg per kg, respectively, at a rate of 0.05 ml per minute by means of a pump (Technicon AA II Proportioning Pump III, manufactured by Technicon Instruments Corporation). No injection was made to a control group. Gross pathological examination was conducted upon expiration of 6 hours after the ventrotomy in the case of the test group to which Compound No. 19 was administered, or upon expiration of 3 hours after the ventrotomy in the case of the test group to which Compound No. 10 was administered. As a result, as shown in the following Table 12, the groups to which the compounds of the present invention were administered, show distinct usefulness for treating acute pancreatitis.

Setting [5] is: 20 mg/kg continuous intravenous injection.
Where [6] appears, read: read-out: Inhibition rate of hemorrhagic lesions (%).
Where [7] appears, read: read-out: Inhibition rate of pancreatitis lesions (%).

By inhibition is commonly meant how much of the control response was suppressed. As a reminder, the LD50 is the dose expected to kill half of the subjects tested. For the compound `CS(=O)(=O)Nc1ncc(C(F)(F)F)cc1NC(=O)c1ccccc1` [compound 43], the inhibition at 1000 ppm in series [1] worked out at 47%. In addition, the LD50 at 168 h in series [2] was found to be 78 mg/kg. The “Inhibition rate of hemorrhagic lesions (%)” value (shortened to “Inhibition rate … (%)”) in series [3] (setting [5]) came out at 81%.
Consider `CS(=O)(=O)Nc1ncc(C(F)(F)F)cc1NC(=O)c1cccc(Cl)c1` [compound 79], for which the inhibition in vivo at 10 mg/kg in series [3] (setting [6]) was 23%; in series [3] (setting [7]), 39%.
Take `CS(=O)(=O)Nc1ncc(C(F)(F)F)cc1NC(=O)c1ccc2c(c1)CCC2` [compound 87]: the LD50 at 168 h in series [2] amounted to 75 mg/kg. Further, the inhibition in vivo at 10 mg/kg in series [3] (setting [6]) worked out at 83%; in series [3] (setting [7]) it was 87%.
On to `Cc1cccc(C(=O)Nc2cc(C(F)(F)F)cnc2NS(C)(=O)=O)c1` [compound 78], for which, in series [2], the LD50 at 168 h was greater than 60 mg/kg. The inhibition in vivo at 10 mg/kg in series [3] (setting [6]) was found to be 96%; in series [3] (setting [7]), 91%.
As for `CS(=O)(=O)Nc1ncc(C(F)(F)F)cc1NC(=O)c1cc2ccccc2s1` [compound 86], in series [2], the LD50 at 168 h is greater than 40 mg/kg. For the same compound, the values for the inhibition in vivo at 10 mg/kg in series [3] (setting [6]) and in series [3] (setting [7]) were 87% and 85%, respectively.
As to `CS(=O)(=O)Nc1ncc(C(F)(F)F)cc1NC(=O)C1CCCC1` [compound 45], in series [1], the inhibition at 1000 ppm came to 50%. In addition, the LD50 at 168 h in series [2] came to 98 mg/kg. The “Inhibition rate … (%)” value in series [3] (25 mg/kg continuous intravenous injection) came to 62%.
In the case of `CCS(=O)(=O)Nc1ncc(C(F)(F)F)cc1NC(=O)C1CCCCC1` [Compound No. 47, N-(2-ethylsulfonylamino-5-trifluoromethyl-3-pyridyl)cyclohexanecarboxamide], in series [1], the inhibition at 1000 ppm came out at 75%. For the same compound, the LD50 at 168 h in series [2] came out at 58 mg/kg. The “Inhibition rate … (%)” value in series [3] (setting [5]) is recorded as 68%.
For the compound `C/C=C/C(=O)Nc1cc(C(F)(F)F)cnc1NS(=O)(=O)CC` [compound 93, N-(2-ethylsulfonylamino-5-trifluoromethyl-3-pyridyl)crotonamide], the inhibition in vivo at 10 mg/kg in series [3] (setting [6]) and in series [3] (setting [7]) was 70% each time.
As for `CS(=O)(=O)Nc1ncc(C(F)(F)F)cc1NC(=O)C(F)(F)C(F)(F)F` [compound 13], the inhibition at 1000 ppm in series [1] is 87%. The LD50 at 168 h in series [2] was greater than 70 mg/kg. The “Inhibition rate … (%)” value in series [3] (23 mg/kg continuous intravenous injection) is on record as 100%.
On to `CCS(=O)(=O)Nc1ncc(C(F)(F)F)cc1NC(=O)C1CCCCC1` [Compound No. 251, sodium salt of N-(2-ethylsulfonylamino-5-trifluoromethyl-3-pyridyl)cyclohexanecarboxamide], for which the figures for the inhibition in vivo at 10 mg/kg in series [3] (setting [6]) and in series [3] (setting [7]) were 79% and 80%, respectively.
For `CCS(=O)(=O)Nc1ncc(C(F)(F)F)cc1NC(=O)C1CCCC1` [compound 94] the same measures were 11% and 11%.
Take `CS(=O)(=O)Nc1ncc(C(F)(F)F)cc1NC(=O)c1ccc(F)cc1` [Compound No. 10, N-(2-methylsulfonylamino-5-trifluoromethyl-3-pyridyl)-4-fluorobenzamide]: in series [1], the inhibition at 1000 ppm stood at 60%. The LD50 at 168 h in series [2] fell in the range of 50 to 100 mg/kg. Also, in series [4], the “Pancreatic edema Distribution” value is “± and + (2×)”; the “Pancreatic edema Grade” value is “± and + and ††”; the “Pancreatic hemorrhage Petechia Grade” value was “± and - and +”.
